Data: the NIST ThermoML archive (doi:10.1016/j.fluid.2014.02.029)
Numbers after ± are expanded uncertainties.

Conditions: 100 kPa, Liquid, Vibrating tube method

Compound | mass density (293.15 K) [kg/m3] | mass density (303.15 K) [kg/m3] | mass density (313.15 K) [kg/m3] | mass density (323.15 K) [kg/m3] | mass density (333.15 K) [kg/m3]
CCOCCOCCOC(C)=O [2-(2-ethoxyethoxy)ethyl acetate] | 1009.46 ± 0.25 | 999.19 ± 0.24 | 988.92 ± 0.24 | 978.66 ± 0.24 | 968.38 ± 0.24
CCCCOCCOC(C)=O [2-butoxyethyl acetate] | 940.7 ± 0.77 | 930.89 ± 0.76 | 921.05 ± 0.75 | 911.18 ± 0.74 | 901.29 ± 0.73
